In data set [1] the test system is cucumber gray mold pathogen (Botrytis cinerea). As to the kind of experiment: Cucumber gray mold control test. Format: in vivo. To be noted: 96 h, read-out: control value.
The test system of data set [2] is apple scab pathogen (Venturia inaequalis). The data set can be described thus: Apple scab control test. Format: in vivo. To be noted: 336 h, read-out: control value.
[3] abbreviates: emulsion sprayed at 100 ppm active ingredient onto cucumber seedlings (Sagami Hanjiro), lesions on leaves after 4 days vs untreated.
Setting [4] is: emulsion sprayed at 100 ppm active ingredient onto apple seedlings (Ralls Janet), lesions on leaves after 2 weeks vs untreated.

Read-outs that look alike come from different tables or passages of the source.

On to `CC1(C)CN=C(c2cnc3ccccc3c2)c2cc(Cl)ccc2O1` [B1-77, 7-Chloro-2,2-dimethyl-5-quinolin-3-yl-2,3-dihydro-benzo[f][1,4]oxazepine], for which the pest or weed control at 100 ppm in data set [1] (setting [3]) is no less than 75%. As to `CC1(C)CN=C(c2cnc3ccccc3c2)c2ccccc2O1` [B1-9, 2,2-Dimethyl-5-(3-quinolinyl)-2,3-dihydro-benzo[f][1,4]oxazepine], the pest or weed control at 100 ppm in data set [2] (setting [4]) and in data set [1] (setting [3]) was no less than 75% throughout. For the compound `CC1(C)C[N+]([O-])=C(c2cnc3c(F)cccc3c2)c2ccccc2O1` [B5-34, 5-(8-Fluoro-quinolin-3-yl)-2,2-dimethyl-2,3-dihydro-benzo[f][1,4]oxazepine 4-oxide], the pest or weed control at 100 ppm in data set [2] (setting [4]) and in data set [1] (setting [3]) was no less than 75% in each case. In general, melting point refers to the temperature, or range, at which the solid turns liquid. Turning to `c1ccc2c(c1)OCCN=C2c1cnc2ccccc2c1` [B1-1, 5-(3-Quinolinyl)-2,3-dihydro-benzo[f][1,4]oxazepine], the melting point fell in the range of 115 to 117 °C. Moreover, in data set [2] (setting [4]), the pest or weed control at 100 ppm was no less than 75%. As for `CC1(C)CN2OC2(c2cnc3c(F)cccc3c2)c2ccccc2O1` (stereo not drawn) [B6-34, 8b-(8-Fluoro-quinolin-3-yl)-3,3-dimethyl-2,3-dihydro-8bH-1,4-dioxa-1a-aza-benzo[a]cyclopropa[c]cycloheptene], the pest or weed control at 100 ppm in data set [2] and in data set [1] was no less than 75% in each case. As for `CC1(C2CC2)CN=C(c2cnc3ccccc3c2)c2ccccc2O1` (stereo not drawn) [B1-70, 2-Cyclopropyl-2-methyl-5-quinolin-3-yl-2,3-dihydro-benzo[f][1,4]oxazepine], the pest or weed control at 100 ppm in data set [2] (setting [4]) and in data set [1] (setting [3]) was no less than 75% throughout. Consider `CC1(C(F)(F)F)CN=C(c2cnc3ccccc3c2)c2ccccc2O1` (stereo not drawn) [B1-51, 2-Methyl-5-quinolin-3-yl-2-trifluoromethyl-2,3-dihydro-benzo[f][1,4]oxazepine], for which the pest or weed control at 100 ppm in data set [2] (setting [4]) is no less than 75%. Take `O=C1COc2ccccc2C(c2cnc3ccccc3c2)=N1` [B1-84, 5-Quinolin-3-yl-benzo[f][1,4]oxazepin-3-one]: the melting point is 169 to 170 °C. Besides, the pest or weed control at 100 ppm in data set [1] (setting [3]) was no less than 75%.

For `CC1(C(F)(F)F)CN=C(c2cnc3c(F)cccc3c2)c2ccccc2O1` (stereo not drawn) [B1-56, 5-(8-Fluoro-quinolin-3-yl)-2-methyl-2-trifluoromethyl-2,3-dihydro-benzo[f][1,4]oxazepine], the melting point lay within 103 to 105 °C. Besides, the pest or weed control at 100 ppm in data set [2] (setting [4]) was no less than 75%. On to `CC1(C)CN=C(c2cnc3sccc3c2)c2cccc(Cl)c2O1` [A1-20, 9-Chloro-2,2-dimethyl-5-(thieno[2,3-b]pyridin-5-yl)-2,3-dihydro-benzo[f][1,4]oxazepine], for which, in data set [2] (setting [4]), the pest or weed control at 100 ppm is no less than 75%. On the same count and under the same terms, the result for `CC1(Cc2ccc(F)cc2)CN=C(c2cnc3ccccc3c2)c2ccccc2O1` (stereo not drawn) [B1-53, 2-(4-Fluorobenzyl)-2-methyl-5-quinolin-3-yl-2,3-dihydro-benzo[f][1,4]oxazepine] reads no less than 75%. In the case of `c1ccc2c(c1)OC1(CC1)CN=C2c1cnc2ccccc2c1` [B1-72, 5-Quinolin-3-yl-2,3-dihydro-benzo[f][1,4]oxazepine-2-spiro-cyclopropane], the melting point fell in the range of 102 to 104 °C. In data set [1] (setting [3]), the pest or weed control at 100 ppm was no less than 75%.

In the case of `CC1(C)COc2ccccc2C(c2cnc3ccccc3c2)=N1` [B1-3, 3,3-Dimethyl-5-(3-quinolinyl)-2,3-dihydro-benzo[f][1,4]oxazepine], the melting point was in the range of 109 to 112 °C. Also, in data set [2] (setting [4]), the pest or weed control at 100 ppm is no less than 75%. In addition, in data set [1] (setting [3]), the pest or weed control at 100 ppm is no less than 75%. On to `CC1(C)CN=C(c2cnc3ccccc3c2)c2ccccc2S1` [B2-6, 2,2-Dimethyl-5-(3-quinolinyl)-2,3-dihydro-benzo[f][1,4]thiazepine], for which the pest or weed control at 100 ppm in data set [2] (setting [4]) and in data set [1] (setting [3]) was no less than 75% throughout. Compound `Cc1cccc2c1OC(C)(C)CN=C2c1cnc2c(F)cccc2c1` [B1-79, 5-(8-Fluoro-quinolin-3-yl)-2,2,9-trimethyl-2,3-dihydro-benzo[f][1,4]oxazepine] gave a melting point of 151 to 153 °C. In addition, the pest or weed control at 100 ppm in data set [2] (setting [4]) was no less than 75%. Further, in data set [1] (setting [3]), the pest or weed control at 100 ppm was no less than 75%. For `CC1(C)CN=C(c2cnc3ccccc3c2)c2cccc(Oc3ccccc3)c2O1` [B1-82, 2,2-Dimethyl-9-phenoxy-5-quinolin-3-yl-2,3-dihydro-benzo[f][1,4]oxazepine], the pest or weed control at 100 ppm in data set [2] (setting [4]) and in data set [1] (setting [3]) was no less than 75% in each case. The compound `O=C1COc2ccccc2C(c2cnc3ccccc3c2)N1` (stereo not drawn) [B4-46, 5-Quinolin-3-yl-4,5-dihydro-benzo[f][1,4]oxazepin-3-one] had a melting point of 225 to 227 °C. Still for that read-out and setting: as for `CC1(C)CN=C(c2cnc3ccccc3c2)c2ccccc2[S+]1[O-]` (stereo not drawn) [B2-16, 6,6-Dimethyl-9-quinolin-3-yl-6,7-dihydro-5-thia-8-aza-benzocycloheptene 5-oxide], the figure is 118 to 120 °C. `CC1(C)CN=C(c2cnc3ccccc3c2)c2cccc(C#N)c2O1` [B1-54, 2,2-Dimethyl-5-quinolin-3-yl-2,3-dihydro-benzo[f][1,4]oxazepine-9-carbonitrile]: the pest or weed control at 100 ppm in data set [2] (setting [4]) was no less than 75%. The compound `CC1(C)CN=C(c2cnc3c(F)cccc3c2)c2cccc(Cl)c2O1` [B1-39, 9-Chloro-5-(8-fluoro-quinolin-3-yl)-2,2-dimethyl-2,3-dihydro-benzo[f][1,4]oxazepine] yielded a melting point of 190 to 191 °C. On the same count and under the same terms, as for `CC1(C)CN=C(c2cnc3c(F)cccc3c2)c2cccc(F)c2O1.Cl`, the figure is 164 to 166 °C.

`CC1(C)CN(Cc2ccccc2)C(c2cnc3c(F)cccc3c2)c2cccc(Cl)c2O1` (stereo not drawn) [B4-50, 4-Benzyl-9-chloro-5-(8-fluoro-quinolin-3-yl)-2,2-dimethyl-2,3,4,5-tetrahydro-benzo[f][1,4]oxazepine]: the melting point fell in the range of 138 to 141 °C. In data set [1] (setting [3]), the pest or weed control at 100 ppm is no less than 75%. In turn, `CC1(C)CN=C(c2cnc3ccccc3c2)c2cccc(F)c2S1` [B2-14, 4-Fluoro-6,6-dimethyl-9-quinolin-3-yl-6,7-dihydro-5-thia-8-aza-benzocycloheptene] displayed a melting point of 119 to 122 °C. Regarding `CC1(C)CN=C(c2cnc3ccccc3c2)c2cccc(Cc3ccccc3)c2O1` [B1-74, 9-Benzyl-2,2-dimethyl-5-quinolin-3-yl-2,3-dihydro-benzo[f][1,4]oxazepine], the pest or weed control at 100 ppm in data set [1] (setting [3]) is no less than 75%.

Source of the values: patent publication US8557738B2, “Nitrogen-containing heterocyclic derivative and fungicide for agricultural and horticultural use” (Nippon Soda Co., Ltd., priority 2008, dated 2013).
